PubChem BioAssay (NCI)
Where “and” joins values, the source holds several entries; their conditions need not be identical. Identical values can stand only once.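 Following 48 hours of exposure in 96-well plates, responses at five concentrations were used to interpolate endpoints linearly. The concentration for 50% growth inhibition is given as GI50. At the TGI there is no net growth.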

Assays:
Test in all cases: NCI tumour cell line growth inhibition, 48 h
ACHN renal = test system: ACHN renal
BT-549 breast = test system: BT-549 breast
CCRF-CEM leukemia = test system: CCRF-CEM leukemia
EKVX NSCLC = test system: EKVX NSCLC
KM12 colon = test system: KM12 colon
LOX IMVI melanoma = test system: LOX IMVI melanoma
SF-539 CNS = test system: SF-539 CNS
SNB-75 CNS = test system: SNB-75 CNS
T-47D breast = test system: T-47D breast
TK-10 renal = test system: TK-10 renal

SMILES | GI50 (ACHN renal) | TGI (ACHN renal) | GI50 (BT-549 breast) | TGI (BT-549 breast) | GI50 (CCRF-CEM leukemia) | TGI (CCRF-CEM leukemia) | GI50 (EKVX NSCLC) | TGI (EKVX NSCLC) | GI50 (KM12 colon) | TGI (KM12 colon) | GI50 (LOX IMVI melanoma) | TGI (LOX IMVI melanoma) | TGI (SF-539 CNS) | GI50 (SNB-75 CNS) | TGI (SNB-75 CNS) | GI50 (T-47D breast) | TGI (T-47D breast) | GI50 (TK-10 renal) | TGI (TK-10 renal) | GI50 (SF-539 CNS)
COc1cc(O)c2c(c1)C(=O)c1cc3c(c(O)c1C2=O)C(OC1OC(C)C(O)C(O)C1OC)C(OC)C(C)(O)C3=O (centres undefined) | 2.4 µM | 12.4 µM | 2.07 µM | 5.18 µM | 3.07 µM and 13.4 µM | > 100 µM and 74.1 µM | 2.74 µM | 7.21 µM and 5.39 µM | 3.11 µM and 2.33 µM | 17.9 µM and 7.92 µM | 1.67 µM | 4.91 µM and 7.1 µM | 4.52 µM and 5.99 µM | 2.84 µM | 15.7 µM and 10.1 µM | 3.12 µM | 9.21 µM | 4.29 µM | 61.4 µM | –
C=C1C(=O)O[C@@H]2C1C[C@@H](O)C(=C)CC/C=C(\C)CCC[C@H](C)[C@H]2OC(C)=O (some centres undefined) | 1.69 µM | 3.85 µM | 2.73 µM | 7.46 µM | 2.34 µM | 5.05 µM | 12 µM | 25.6 µM | 11.4 µM | 26 µM | 2.14 µM | 6.07 µM | 26.3 µM | 13.9 µM | 33.6 µM | 6.46 µM | 42.3 µM | 2.11 µM | 5.57 µM | 12.8 µM
C/C(=C(\c1ccc(OCCN2CCCCCC2)cc1)c1ccc(OC(=O)Cc2ccccc2)cc1)c1ccc(Cl)cc1 | 2.63 µM | 4.93 µM | 2.2 µM | 4.58 µM | 3.2 µM | 10.5 µM | 2.6 µM | 7.8 µM | 2.72 µM | 5.77 µM | 2.51 µM | 4.77 µM | 4.82 µM | 2.3 µM | 5.33 µM | 1.95 µM | 6.42 µM | 4.43 µM | 16.6 µM | 2.36 µM
COc1ccc(-c2cc(-c3ccc(O)cc3)nc3n[nH]c(N)c23)cc1 | 18.2 µM | 87.9 µM | 15.5 µM | 32.6 µM | 21.6 µM | 81.8 µM | 15.3 µM | 52.3 µM | 16.3 µM | 40.7 µM | 17 µM | 36.4 µM | 28.6 µM | 31.7 µM | > 100 µM | 18 µM | 83.5 µM | 29.8 µM | > 100 µM | 14.7 µM
CCOC(=O)C(C)(C)C(O)C(C)C (centres undefined) | – | > 100 µM | – | > 100 µM | – | > 100 µM | – | > 100 µM | – | > 100 µM | – | > 100 µM | > 100 µM | – | > 100 µM | – | > 100 µM | – | > 100 µM | –
CCN(CC)CCNc1cc(-c2cccc(OC(F)(F)F)c2)nc2ccc(N3CCCC3)cc12 | 1.53 µM and 1.68 µM and 1.92 µM | 2.9 µM and 3.28 µM and 3.93 µM | 1.6 µM and 1.83 µM and 1.85 µM | 3.11 µM and 3.47 µM and 3.57 µM | 1.57 µM and 2.19 µM and 2.8 µM | 4.2 µM and 6.84 µM and 10.4 µM | 2.14 µM and 2.29 µM and 2.49 µM | 5.82 µM and 6.24 µM and 8.91 µM | 1.71 µM and 1.7 µM and 1.85 µM | 3.51 µM and 3.39 µM and 3.77 µM | 1.56 µM and 1.39 µM and 1.73 µM | 2.96 µM and 2.73 µM and 3.19 µM | 3.2 µM and 3.32 µM and 3.36 µM | 1.79 µM and 1.74 µM | 4.29 µM and 5.78 µM | 1.78 µM and 2.12 µM | 4.04 µM and 4.32 µM | 2.06 µM and 1.87 µM and 2.31 µM | 4.5 µM and 3.49 µM and 5.73 µM | 1.68 µM and 1.74 µM and 1.79 µM
COc1ccc2c(c1OC)OCC(CN(C)C)C2=O (centres undefined) | – | 31.7 µM | – | 38.7 µM | – | 8.54 µM | – | 49.9 µM | – | 33.9 µM | – | 31.2 µM | 36.7 µM | – | 52.4 µM | – | > 62.2 µM | – | 34.4 µM | –
COc1ccc2nc3ccccc3c(NCCCN(C)CCCl)c2c1 | – | 0.695 µM | – | 2.57 µM | – | 1.58 µM | – | 3.15 µM | – | 2.06 µM | – | 1.16 µM | 1.29 µM | – | 1.47 µM | – | 0.467 µM | – | 4.08 µM | –
Cc1cc(Oc2ccc3nc(COc4ccc(CC5SC(=O)NC5=O)cc4)n(C)c3c2)cc(C)c1N (centres undefined) | 48.9 µM | > 100 µM | 24.2 µM | > 79.2 µM | 30.9 µM | > 100 µM | 39 µM | > 100 µM | 26.5 µM | > 76.2 µM | 17.2 µM | > 71.3 µM | > 83.4 µM | 27.6 µM | > 72.7 µM | 25.7 µM | > 66.9 µM | > 52.6 µM | > 91.6 µM | 43.3 µM
